Results taken from patent publication US6780869B1, “Pyrimidine derivatives” (SmithKline Beecham Corporation, priority 1999, dated 2004).

What was measured:
[1] = molecular target: T1, human COX-2 (Homo sapiens, UniProt P35354); assay: Cell based assay, COS cells stably transfected with human COX-2, PGE2 release; conditions: inhibition of PGE2 release, 30 μM arachidonic acid
T1 construct: expressed in transfected cells; host or cells: COS cells (stably transfected)
T1 sequence (P35354 18-604): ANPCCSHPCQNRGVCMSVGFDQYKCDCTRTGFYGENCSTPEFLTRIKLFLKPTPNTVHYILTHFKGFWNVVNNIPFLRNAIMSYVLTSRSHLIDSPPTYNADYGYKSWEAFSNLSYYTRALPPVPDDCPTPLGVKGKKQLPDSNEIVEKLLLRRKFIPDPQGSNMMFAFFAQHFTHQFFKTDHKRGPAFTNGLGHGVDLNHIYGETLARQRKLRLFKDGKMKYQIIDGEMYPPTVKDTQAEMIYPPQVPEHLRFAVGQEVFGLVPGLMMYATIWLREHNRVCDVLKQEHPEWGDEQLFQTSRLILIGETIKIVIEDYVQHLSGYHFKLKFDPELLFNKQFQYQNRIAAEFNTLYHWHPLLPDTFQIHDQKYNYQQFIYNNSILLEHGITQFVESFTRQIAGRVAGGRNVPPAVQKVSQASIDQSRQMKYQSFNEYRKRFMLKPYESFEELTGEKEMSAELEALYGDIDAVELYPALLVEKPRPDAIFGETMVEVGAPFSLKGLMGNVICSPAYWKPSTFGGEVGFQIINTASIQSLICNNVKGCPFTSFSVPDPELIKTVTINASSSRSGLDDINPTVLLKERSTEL
Procedure: 24 Hours prior to experiment, COS cells were transferred from the 175 cm^2 flasks in which they were grown, onto 24-well cell culture plates using the following procedure. The incubation medium (Dulbecco's modified eagles medium (DMEM) supplemented with heat-inactivated foetal calf serum (10% v/v), penicillin (100 IU/ml), streptomycin (100 μg/ml) and geneticin (600 μg/ml)) was removed from a flask of confluent cells (1 flask at confluency contains approximately 1×10^7 cells). 5 ml of phosphate buffered saline (PBS) was added to the flask to wash the cells. […] The flask was then removed from the incubator and 5 ml of fresh incubation medium was added. The contents of the flask was transferred to a 250 ml sterile container and the volume of incubation medium subsequently made up to 100 ml. 1 ml cell suspension was pipetted into each well of 4×24-well cell culture plates. The plates were then placed in an incubator (37° C., 95% air/5% CO2) overnight. If more than 1 flask of cells were required, the cells from the individual flasks were combined before being dispensed into the 24-well plates.
Following the overnight incubation, the incubation medium was completely removed from the 24-well cell culture plates and replaced with 250 μl fresh DMEM (37° C.). The test compounds were made up to 250× the required test concentration in DMSO and were added to the wells in a volume of 1 μl. Plates were then mixed gently by swirling and then placed in an incubator for 1 hour (37° C., 95% air/5% CO2). […] Plates were then incubated for a further 10 minutes, after which the incubation medium was removed from each well of the plates and stored at −20° C., prior to determination of prostaglandin E2 (PGE2) levels using enzyme immunoassay. […] The selectivity ratio of inhibition of COX-1 versus COX-2 was calculated by comparing respective IC50 values.

[2] = molecular target: T2, microsomal h-COX2 (Homo sapiens, UniProt P35354); assay: Microsomal assay, microsomal preparation from baculovirus infected SF9 cells, PGE2 by EIA; format: biochemical; conditions: 0.1 μM arachidonic acid, read-out: COX-2: IC50
T2 construct: made in house; host or cells: baculovirus infected SF9 cells (microsomal preparation)
T2 sequence (P35354 18-604): T1 sequence (P35354 18-604)
Procedure: Inhibitory activity against microsomal h-COX2 was assessed against a microsomal preparation from baculovirus infected SF9 cells. An aliquot of microsomal preparation was thawed slowly on ice and a 1/40,000 dilution prepared from it into the assay buffer (sterile water, degassed with argon containing 100 mM HEPES (pH 7.4), 10 mM EDTA (pH7.4), 1 mM phenol, 1 mM reduced glutathione, 20 mg/ml gelatin and 0.001 mM Hematin). Once diluted the enzyme solution was then sonicated for 5 seconds (Branson sonicator, setting 4, 1 cm tip) to ensure a homogeneous suspension. 155 μl enzyme solution was then added to each well of a 96-well microtitre plate containing either 5 μl test compound (40× required test concentration) or 5 μl DMSO for controls. Plates were then mixed and incubated at room temperature for 1 hour. Following the incubation period, 40 μl of 0.5 μM arachidonic acid was added to each well to give a final concentration of 0.1 μM. Plates were then mixed and incubated for exactly 10 minutes (room temperature) prior to addition of 25 μl 1M HCl (hydrochloric acid) to each well to stop the reaction. 25 μl of 1M NaOH (sodium hydroxide) was then added to each well to neutralise the solution prior to determination of PGE2 levels by enzyme immunoassay (EIA).

[3] = molecular target: T3, COX-1 (Homo sapiens, UniProt P23219); assay: Microsomal assay, COX-1; format: biochemical
T3 sequence (P23219 24-599): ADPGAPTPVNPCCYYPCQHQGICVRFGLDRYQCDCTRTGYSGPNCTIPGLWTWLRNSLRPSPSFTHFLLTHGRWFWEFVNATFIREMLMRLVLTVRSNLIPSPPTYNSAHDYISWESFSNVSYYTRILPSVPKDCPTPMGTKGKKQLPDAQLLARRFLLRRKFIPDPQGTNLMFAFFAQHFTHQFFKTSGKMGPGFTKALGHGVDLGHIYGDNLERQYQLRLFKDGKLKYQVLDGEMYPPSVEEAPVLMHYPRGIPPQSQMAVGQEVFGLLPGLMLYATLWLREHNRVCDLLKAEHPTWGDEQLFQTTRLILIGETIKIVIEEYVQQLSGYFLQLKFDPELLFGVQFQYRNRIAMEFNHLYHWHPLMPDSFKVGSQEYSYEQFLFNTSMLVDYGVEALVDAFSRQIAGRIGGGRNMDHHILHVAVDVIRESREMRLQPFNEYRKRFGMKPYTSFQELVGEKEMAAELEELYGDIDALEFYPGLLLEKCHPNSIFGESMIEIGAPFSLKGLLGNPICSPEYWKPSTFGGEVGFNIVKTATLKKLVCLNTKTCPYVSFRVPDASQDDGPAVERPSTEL

[4] = molecular target: T3, COX-1; assay: Cell based assay, COS cells stably transfected with human COX-1, PGE2 release; set-up: expressed in transfected cells; host or cells: COS cells (stably transfected); conditions: inhibition of PGE2 release, 30 μM arachidonic acid
Procedure: Inhibitory activity against human COX-1 and COX-2 was assessed in COS cells which had been stably transfected with EDNA for human COX-1 and human COX-2. 24 Hours prior to experiment, COS cells were transferred from the 175 cm^2 flasks in which they were grown, onto 24-well cell culture plates using the following procedure. The incubation medium (Dulbecco's modified eagles medium (DMEM) supplemented with heat-inactivated foetal calf serum (10% v/v), penicillin (100 IU/ml), streptomycin (100 μg/ml) and geneticin (600 μg/ml)) was removed from a flask of confluent cells (1 flask at confluency contains approximately 1×10^7 cells). 5 ml of phosphate buffered saline (PBS) was added to the flask to wash the cells. Having discarded the PBS, cells were then incubated with 5 ml trypsin for 5 minutes in an incubator (37°). The flask was then removed from the incubator and 5 ml of fresh incubation medium was added. The contents of the flask was transferred to a 250 ml sterile container and the volume of incubation medium subsequently made up to 100 ml. 1 ml cell suspension was pipetted into each well of 4×24-well cell culture plates. The plates were then placed in an incubator (37° C., 95% air/5% CO2) overnight. If more than 1 flask of cells were required, the cells from the individual flasks were combined before being dispensed into the 24-well plates.
Following the overnight incubation, the incubation medium was completely removed from the 24-well cell culture plates and replaced with 250 μl fresh DMEM (37° C.). The test compounds were made up to 250× the required test concentration in DMSO and were added to the wells in a volume of 1 μl. Plates were then mixed gently by swirling and then placed in an incubator for 1 hour (37° C., 95% air/5% CO2). Following the incubation period, 10 μl of arachidonic acid (750 μM) was added to each well to give a final arachidonic acid concentration of 30 μM. […] The selectivity ratio of inhibition of COX-1 versus COX-2 was calculated by comparing respective IC50 values.

Row | IC50 [1] | IC50 [2] | IC50 [3] | IC50 [4] | Compound
1 | 2 nM | 12 nM | > 100000 nM | > 66000 nM | CC(C)CNc1nc(-c2ccc(S(C)(=O)=O)cc2)cc(C(F)(F)F)n1 [Example 8, N-isobutyl-4-[4-(methylsulfonyl)phenyl]-6-(trifluoromethyl)pyrimidin-2-amine]
2 | – | < 1 nM | > 100000 nM | – | CS(=O)(=O)c1ccc(-c2cc(C(F)(F)F)nc(NCC3CCC3)n2)cc1 [Example 31, N-(cyclobutylmethyl)-4-[4-(methylsulfonyl)phenyl]-6-(trifluoromethyl)pyrimidin-2-amine]
3 | 0.1 nM | – | – | > 24600 nM | CS(=O)(=O)c1ccc(-c2cc(C(F)(F)F)nc(NC3CCCC3)n2)cc1 [Example 1, N-cyclopentyl-4-[4-(methylsulfonyl)phenyl]-6-(trifluoromethyl)pyrimidin-2-amine]
4 | 0.5 nM | – | – | > 58400 nM | CS(=O)(=O)c1ccc(-c2cc(C(F)(F)F)nc(NC3CCCCC3)n2)cc1 [Example 2, N-cyclohexyl-4-[4-(methylsulfonyl)phenyl]-6-(trifluoromethyl)pyrimidin-2-amine]
